Paper PMC10065799, “High-throughput profiling of sequence recognition by tyrosine kinases and SH2 domains using bacterial peptide display” (eLife, 2023)
Square brackets hold non-standard residues; d marks the D form. pY = N[C@@H](Cc1ccc(OP(=O)(O)O)cc1)C(=O)O

Assays:
Test in all cases: pTyr-Var library bacterial peptide display kinase screen (enrichment scores)
c-Abl kinase domain = target: T1, c-Abl kinase domain (Mus musculus, UniProt P00520); assay type: biochemical;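 note: log2 fold change in enrichment of variant over reference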
T1 sequence (P00520 242-493 limits assumed): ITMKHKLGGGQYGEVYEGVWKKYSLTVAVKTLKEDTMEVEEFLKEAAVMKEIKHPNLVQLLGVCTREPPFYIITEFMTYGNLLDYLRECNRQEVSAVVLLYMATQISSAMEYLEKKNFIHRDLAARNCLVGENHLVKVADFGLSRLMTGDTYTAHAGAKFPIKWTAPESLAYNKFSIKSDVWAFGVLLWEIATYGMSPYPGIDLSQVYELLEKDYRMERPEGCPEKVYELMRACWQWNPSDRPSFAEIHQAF

c-Src kinase domain = c-Src kinase domain (Homo sapiens, UniProt P12931); assay type: biochemical; conditions: sheet "Src";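 note: log2 fold change in enrichment of variant over reference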
Fer kinase domain = assay type: biochemical, mouse; conditions: sheet "Fer"
EPHB1 kinase domain = assay type: biochemical, human; conditions: for Screen: sheet EPHB1, effect of the variant peptide relative to its reference peptide in the pTyr-Var library screen (enrichment scores); for Screen (variant relative to reference peptide, measured in the pTyr-Var library screen): sheet "EPHB1", variant seq vs reference seq, bacterial peptide display enrichment
EPHB2 kinase domain = assay type: biochemical, human; conditions: sheet EPHB2; effect of variant peptide relative to its reference peptide in the pTyr-Var library screen (enrichment scores)
[1] = fig5-data2, sheet "Abl", Screen for the variant/reference peptide pair, pTyr-Var library
[2] = sheet "Abl", effect of variant peptide relative to its reference peptide in pTyr-Var library screen (enrichment)
[3] = effect of the variant peptide relative to its reference peptide in the pTyr-Var library screen
[4] = variant peptide versus its reference peptide in the pTyr-Var library screen
[5] = value of the variant peptide against its reference peptide in the pTyr-Var library screen with Fer
[6] = variant peptide relative to its reference peptide, pTyr-Var library screen enrichment

Question: ALPGEYIPTVF [RAC1_Y32_F28L] was tested. Which Screen (c-Abl kinase domain; [1]) did it give?
Answer: Its Screen is -1.258.

Question: PQGVSYIFTID [DCX_Y103_R102S_YF] was tested. Which Screen (c-Abl kinase domain; [1]) did it give?
Answer: The Screen was -1.987.

Question: Which Screen (c-Abl kinase domain; [2]) does the source give for LTDLRYKVSGP [TTN_Y22641_L22646P] here?
Answer: The Screen was -1.764.

Question: Which Screen (c-Src kinase domain; [3]) does the source give for QMVRMYASSFM [AVPR2_Y124_G122R_YF] here?
Answer: The Screen was -2.32.

Question: How did the Screen (c-Abl kinase domain; [1]) turn out when QKPLGYFRVNL [GALE_Y104_D103G_YF] was run?
Answer: Its Screen is -1.351.

Question: How did the Screen (c-Abl kinase domain; [1]) turn out when DLSEVYKPCRK [CCDC93_Y176_R179C] was run?
Answer: Its Screen is 0.05093.

Question: How did the Screen (c-Src kinase domain; [4]) turn out when PLDGEYFTHQI [TP53_Y327_L330H] was run?
Answer: The Screen was -1.246.

Question: How did the Screen (Fer kinase domain; [5]) turn out when EGNEQYEGFCV [GRIA3_Y451_R450Q_YF] was run?
Answer: Its Screen is 2.326.

Question: TVLWQYTGTRP [UGT1A1_Y337_R336Q] was tested. Which Screen (c-Abl kinase domain; [2]) did it give?
Answer: Its Screen is 0.7115.

Question: With KSVEEYANCHL [TF_Y593_P589S] as the substance, how does the Screen (c-Abl kinase domain; [2]) read?
Answer: Its Screen is 0.8616.

Question: With LIFTNYEVGKD [GSTP1_Y112_A114V_YF] as the substance, how does the Screen (EPHB1 kinase domain) read?
Answer: Its Screen is 1.043.

Question: With AVEDQYFRVDC [FHL1_Y207_C209R_YF] as the substance, how does the Screen (c-Abl kinase domain; [1]) read?
Answer: Its Screen is -2.172.

Question: With FCRHNYGAVES [HLA-DRB1_Y112_V114A_YF] as the substance, how does the Screen (EPHB2 kinase domain) read?
Answer: The Screen was -2.259.

Question: KKFPDYIQIAR [SGMS2_Y59_M64R_YF] was tested. Which “Screen (variant relative to reference peptide, measured in the pTyr-Var library screen)” value (EPHB1 kinase domain) did it give?
Answer: Its value is -0.1665.

Question: What about the Screen (c-Abl kinase domain; [2]) of the same substance?
Answer: Its Screen is 1.322.

Question: With ACCLLYHGDVV [TUBA4A_Y319_R320H] as the substance, how does the Screen (Fer kinase domain; [6]) read?
Answer: The Screen was 1.239.

Question: And the Screen (c-Src kinase domain; [4])?
Answer: The Screen was -0.1128.

Question: For EKQLLYLENKT [FRK_Y132_S133L], which Screen (c-Abl kinase domain; [1]) is on record?
Answer: Its Screen is 1.576.

Question: What does the source list for VMAALYGRLFE [BTD_Y536_T532M_YF]?
Answer: Screen (c-Src kinase domain; [3]): 0.294; Screen (c-Abl kinase domain; [1]): -0.5848

Question: How did the “Screen (variant relative to reference peptide, measured in the pTyr-Var library screen)” value (EPHB1 kinase domain) turn out when VMLENYSNLLS [ZFP69_Y109_V113L] was run?
Answer: The value was 0.4122.

Question: How did the Screen (c-Abl kinase domain; [2]) turn out when FNDSAYNQQLI [ZPLD1_Y198_T197A_YF] was run?
Answer: The Screen was 1.136.

Question: Which Screen (c-Src kinase domain; [4]) does the source give for GPQSLYNGLVA [UCP2_Y79_R76Q] here?
Answer: Its Screen is 1.82.

Question: For DWQQEYVLNES [TGM1_Y267_R264Q], which Screen (c-Src kinase domain; [4]) is on record?
Answer: The Screen was 1.018.

Question: With PNRILYGDFWQ [MYH7_Y715_R719W] as the substance, how does the Screen (c-Src kinase domain; [4]) read?
Answer: Its Screen is -0.3786.

Question: Which Screen (c-Abl kinase domain; [1]) does the source give for REGAKYVSHDA [ASS1_Y113_G117D] here?
Answer: The Screen was 1.12.

Question: With ETCLAYMEKRI [TEKT1_Y118_R119M] as the substance, how does the Screen (c-Abl kinase domain; [2]) read?
Answer: The Screen was -0.666.

Question: With DLGIQYKVLKP [CTNNA1_Y177_A179V] as the substance, how does the Screen (c-Abl kinase domain; [1]) read?
Answer: The Screen was 0.1591.

Question: With DDFDLYGGEKF [PTPN11_Y66_Y62D_YF] as the substance, how does the Screen (Fer kinase domain; [6]) read?
Answer: The Screen was 1.351.

Question: What about the Screen (c-Src kinase domain; [4]) of the same substance?
Answer: The Screen was -0.3825.

Question: And the Screen (c-Abl kinase domain; [1])?
Answer: The Screen was -0.3703.

Question: How did the Screen (c-Src kinase domain; [4]) turn out when ETELPYQELQG [TYROBP_Y91_S89L] was run?
Answer: The Screen was 0.7128.

Question: Which Screen (c-Abl kinase domain; [1]) does the source give for PVQAAYQKLVA [HBB_Y131_V134L] here?
Answer: The Screen was -1.01.

Question: With LNECHYGALIG [BPGM_Y92_R90C] as the substance, how does the Screen (c-Src kinase domain; [3]) read?
Answer: Its Screen is 2.509.

Question: How did the Screen (c-Src kinase domain; [4]) turn out when TFGNLYGSRKQ [YIPF7_Y59_A54T_YF] was run?
Answer: Its Screen is 0.7296.

Question: And the Screen (c-Abl kinase domain; [2])?
Answer: Its Screen is -3.299.

Question: Which Screen (c-Src kinase domain; [4]) does the source give for DWRQEYVLNEP [TGM1_Y267_S272P] here?
Answer: Its Screen is 0.4859.

Question: SNKELYEKFMI [TTN_Y32175_T32171N_YF] was tested. Which Screen (Fer kinase domain; [6]) did it give?
Answer: The Screen was 0.5633.

Question: What about the Screen (c-Src kinase domain; [4]) of the same substance?
Answer: Its Screen is 0.8077.

Question: Which Screen (c-Abl kinase domain; [1]) does the source give for “Ac-QSLEKS[pY]ELLDGG-NH2 [ACTB_Y240_P243L]” here?
Answer: Its Screen is -1.856.

Question: Which Screen (c-Abl kinase domain; [1]) does the source give for KFFRVYQGQQP [MUTYH_Y494_V490F] here?
Answer: Its Screen is -1.003.

Question: With REGKIYEFNQV [ZNF665_Y162_H157R_YF] as the substance, how does the Screen (Fer kinase domain; [6]) read?
Answer: Its Screen is -0.7739.

Question: What about the Screen (c-Src kinase domain; effect of the variant peptide against its reference peptide, seen in the pTyr-Var library screen) of the same substance?
Answer: Its Screen is -1.072.

Question: And the Screen (c-Abl kinase domain; [2])?
Answer: The Screen was -1.605.

Question: Which Screen (Fer kinase domain; [5]) does the source give for VASMFYTLVIP [OR8K3_Y277_I275M] here?
Answer: Its Screen is 0.3514.

Question: Which Screen (c-Abl kinase domain; [1]) does the source give for AGQEGYDRLRP [RAC1_Y64_D63G] here?
Answer: The Screen was -0.6801.

Question: CLGNQYVNVMN [SLC3A1_Y461_R456C] was tested. Which “Screen (variant relative to reference peptide, measured in the pTyr-Var library screen)” value (EPHB1 kinase domain) did it give?
Answer: The value was -0.4562.

Question: Which Screen (c-Abl kinase domain; [2]) does the source give for TVLWLYTGTRP [UGT1A1_Y337_R336L] here?
Answer: The Screen was 0.619.

Question: RREWFYEVIIA [BACE1_Y260_V265A_YF] was tested. Which Screen (Fer kinase domain; [5]) did it give?
Answer: Its Screen is -1.406.

Question: For TTKGAYSLSVR [YES1_Y194_I198V], which Screen (c-Abl kinase domain; [2]) is on record?
Answer: Its Screen is 2.19.

Question: How did the Screen (Fer kinase domain; [5]) turn out when TESALYGCTVV [KIAA1804_Y724_L729V] was run?
Answer: Its Screen is 0.07488.

Question: And the Screen (c-Src kinase domain; [3])?
Answer: The Screen was -0.09726.

Question: For KKHIPYSEHKS [CSNK1G2_Y206_R207S], which Screen (Fer kinase domain; [5]) is on record?
Answer: The Screen was -1.379.

Question: What about the Screen (EPHB1 kinase domain) of the same substance?
Answer: The Screen was -1.865.

Question: DLAHKYHGGGG [HBB_Y146_A141D] was tested. Which Screen (c-Abl kinase domain; [1]) did it give?
Answer: Its Screen is -0.5192.

Question: Which results are given for ENFSEYQEISV [HEMGN_Y150_A154S]?
Answer: Screen (EPHB1 kinase domain): 0.04896; Screen (c-Abl kinase domain; [1]): 0.8508

Question: How did the Screen (c-Src kinase domain; [4]) turn out when PLDGEYFSLQI [TP53_Y327_T329S] was run?
Answer: Its Screen is 0.4244.

Question: With LNPFIYSLRNC [OR1A2_Y288_W293C] as the substance, how does the Screen (Fer kinase domain; [5]) read?
Answer: Its Screen is -1.075.

Question: What about the Screen (EPHB1 kinase domain) of the same substance?
Answer: The Screen was -1.104.

Question: What about the Screen (c-Src kinase domain; [4]) of the same substance?
Answer: The Screen was -0.4787.

Question: What does the source list for “Ac-IGEGTYRTVFK-NH2 [CDK5_Y15_G16R, pTyr-Var library variant phosphosite peptide]”?
Answer: Screen (c-Src kinase domain; [3]): -3.502; Screen (EPHB2 kinase domain): -2.132

Question: With GDAMLYFPSVS [GPR143_Y177_A173D_YF] as the substance, how does the Screen (c-Abl kinase domain; [1]) read?
Answer: The Screen was 0.9829.

Question: LTMAPYSSVSV [FAM81A_Y24_L29V] was tested. Which Screen (Fer kinase domain; [5]) did it give?
Answer: Its Screen is 0.5529.

Question: Which results are given for HNELFYEAAEH [VANGL1_Y345_E347A_YF]?
Answer: Screen (Fer kinase domain; [6]): 1.287; Screen (c-Src kinase domain; [4]): 1.947
